Experimental data: patent publication US20100216779A1 (GLAXOSMITHKLINE LLC, priority 2007, published 2010)

Legend:
Assay type in all cases: cell-based
[1] = test system: NCI-H929 (multiple myeloma); assay: Inhibition of cell proliferation, CellTiter-Glo, NCI-H929; conditions: Homo sapiens, 72 h
In short: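 Cells were grown in medium with 10% FBS at 37° C, 5% CO2. Cell number was read as CellTiter-Glo luminescence (cellular ATP), with untreated wells as control.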

[2] = molecular target: T1, human IGF-1R (NIH-3T3 cells over expressing human IGF-1R) (Homo sapiens, UniProt P08069); assay: IGF-1R cellular autophosphorylation (DELFIA); conditions: IGF-1 stimulated
T1 construct: expressed in transfected cells; host or cells: NIH-3T3 (mouse fibroblasts)
In short: (§1)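 Autophosphorylation of IGF-1R or IR is measured in NIH-3T3 lines overexpressing each human receptor after 2 h compound pretreatment and a 15 min ligand challenge (IGF-1 30 ng/mL; insulin 3 ug/mL). Fluorescence is normalised to 100% stimulation.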

[3] = molecular target: T2, IR (NIH-3T3 cells over expressing human IGF-1R or IR) (Homo sapiens, UniProt P06213); assay: IR cellular autophosphorylation (DELFIA); conditions: NIH-3T3 cells over expressing IR, insulin stimulated
T2 construct: expressed in transfected cells; host or cells: NIH-3T3 (mouse fibroblasts)
In short: as §1

[4] = test system: COLO205 (colon); assay: Inhibition of cell proliferation, CellTiter-Glo, COLO205; conditions: Homo sapiens, COLO 205, 72 h
In short: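 Exponentially growing COLO205 cells in medium with 10% FBS were plated below 2000 cells/well at 37 °C, 5% CO2. Untreated wells served as controls.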

T1 sequence (P08069 31-1367): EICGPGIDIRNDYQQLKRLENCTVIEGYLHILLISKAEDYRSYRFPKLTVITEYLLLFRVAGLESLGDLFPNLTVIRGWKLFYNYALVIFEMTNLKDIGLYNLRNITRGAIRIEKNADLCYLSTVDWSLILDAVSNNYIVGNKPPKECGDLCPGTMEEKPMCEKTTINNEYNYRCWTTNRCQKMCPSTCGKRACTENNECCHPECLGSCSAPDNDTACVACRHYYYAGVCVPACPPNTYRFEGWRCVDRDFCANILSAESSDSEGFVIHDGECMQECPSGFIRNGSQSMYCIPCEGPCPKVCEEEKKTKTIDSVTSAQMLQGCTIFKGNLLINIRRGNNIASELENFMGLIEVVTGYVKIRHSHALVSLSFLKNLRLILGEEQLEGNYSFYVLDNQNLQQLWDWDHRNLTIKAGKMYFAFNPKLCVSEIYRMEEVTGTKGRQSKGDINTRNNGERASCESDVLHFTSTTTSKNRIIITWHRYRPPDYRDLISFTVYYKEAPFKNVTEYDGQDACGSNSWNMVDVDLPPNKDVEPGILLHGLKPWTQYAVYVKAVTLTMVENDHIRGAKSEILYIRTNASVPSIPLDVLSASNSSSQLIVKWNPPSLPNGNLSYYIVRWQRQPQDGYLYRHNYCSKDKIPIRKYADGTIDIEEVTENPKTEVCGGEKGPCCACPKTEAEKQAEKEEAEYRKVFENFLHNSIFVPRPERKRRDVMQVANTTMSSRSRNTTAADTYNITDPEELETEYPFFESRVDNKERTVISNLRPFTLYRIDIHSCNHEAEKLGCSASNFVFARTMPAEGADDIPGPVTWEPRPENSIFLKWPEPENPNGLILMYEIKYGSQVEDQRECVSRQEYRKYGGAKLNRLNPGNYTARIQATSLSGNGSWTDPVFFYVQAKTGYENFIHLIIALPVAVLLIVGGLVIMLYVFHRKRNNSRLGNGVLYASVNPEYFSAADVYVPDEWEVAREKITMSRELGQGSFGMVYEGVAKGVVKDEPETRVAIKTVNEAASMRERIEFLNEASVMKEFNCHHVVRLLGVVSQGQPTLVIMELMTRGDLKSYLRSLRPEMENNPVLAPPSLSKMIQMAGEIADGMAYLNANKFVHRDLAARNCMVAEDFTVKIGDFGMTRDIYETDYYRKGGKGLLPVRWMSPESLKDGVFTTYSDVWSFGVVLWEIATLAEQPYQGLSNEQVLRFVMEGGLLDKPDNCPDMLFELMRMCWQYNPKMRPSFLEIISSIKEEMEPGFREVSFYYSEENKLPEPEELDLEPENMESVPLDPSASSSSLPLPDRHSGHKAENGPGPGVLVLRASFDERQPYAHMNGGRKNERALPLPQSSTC
T2 sequence (P06213 28-1382): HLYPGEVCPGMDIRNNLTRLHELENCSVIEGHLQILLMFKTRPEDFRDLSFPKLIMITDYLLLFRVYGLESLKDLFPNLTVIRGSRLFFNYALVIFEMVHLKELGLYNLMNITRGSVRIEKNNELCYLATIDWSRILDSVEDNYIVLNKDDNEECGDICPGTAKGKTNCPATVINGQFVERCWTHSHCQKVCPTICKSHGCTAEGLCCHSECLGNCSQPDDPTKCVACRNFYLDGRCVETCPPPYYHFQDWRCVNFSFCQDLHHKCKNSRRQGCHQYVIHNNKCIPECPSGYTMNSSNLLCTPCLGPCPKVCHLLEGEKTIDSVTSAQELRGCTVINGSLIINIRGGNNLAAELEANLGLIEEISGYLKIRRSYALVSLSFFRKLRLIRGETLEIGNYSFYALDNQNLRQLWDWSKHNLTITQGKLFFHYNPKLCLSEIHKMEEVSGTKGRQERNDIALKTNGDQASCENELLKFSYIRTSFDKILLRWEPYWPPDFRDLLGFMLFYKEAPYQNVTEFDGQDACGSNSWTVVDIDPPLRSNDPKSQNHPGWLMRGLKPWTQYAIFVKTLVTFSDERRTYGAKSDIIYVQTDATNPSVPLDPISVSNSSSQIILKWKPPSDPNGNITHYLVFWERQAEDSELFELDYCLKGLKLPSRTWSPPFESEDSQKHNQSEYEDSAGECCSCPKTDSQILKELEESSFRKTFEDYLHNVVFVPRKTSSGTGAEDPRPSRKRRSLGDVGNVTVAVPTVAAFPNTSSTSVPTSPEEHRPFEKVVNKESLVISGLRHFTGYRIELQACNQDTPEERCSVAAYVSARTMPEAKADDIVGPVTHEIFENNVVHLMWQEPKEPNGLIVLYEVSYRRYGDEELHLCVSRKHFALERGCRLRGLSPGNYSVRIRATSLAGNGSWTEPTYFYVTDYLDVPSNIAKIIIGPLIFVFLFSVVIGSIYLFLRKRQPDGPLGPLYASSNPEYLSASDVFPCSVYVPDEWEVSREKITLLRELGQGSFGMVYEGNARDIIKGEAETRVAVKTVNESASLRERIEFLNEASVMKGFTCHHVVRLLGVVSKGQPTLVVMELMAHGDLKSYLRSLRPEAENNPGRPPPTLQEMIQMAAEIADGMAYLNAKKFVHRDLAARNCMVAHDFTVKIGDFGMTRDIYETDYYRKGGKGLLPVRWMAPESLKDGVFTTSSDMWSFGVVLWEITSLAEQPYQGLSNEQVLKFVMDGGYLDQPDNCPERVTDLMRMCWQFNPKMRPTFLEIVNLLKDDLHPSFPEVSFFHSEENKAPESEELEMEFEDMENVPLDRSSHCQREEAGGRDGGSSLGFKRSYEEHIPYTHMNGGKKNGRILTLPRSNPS

Compound: CCOc1cc(N2CCC(N3CCN(S(C)(=O)=O)CC3)CC2)ccc1Nc1nccc(-c2c(-c3ccc(OCC)c(C(=O)Nc4c(F)cccc4F)c3)nc3ccccn23)n1 [Example 222, N-(2,6-difluorophenyl)-2-(ethyloxy)-5-(3-{2-[(2-(ethyloxy)-4-{4-[4-(methylsulfonyl)-1-piperazinyl]-1-piperidinyl}phenyl)amino]-4-pyrimidinyl}imidazo[1,2-a]pyridin-2-yl)benzamide]
- IC50 [1]: < 250 nM
- IC50 [2]: < 100 nM
- IC50 [3]: < 100 nM
- IC50 [4]: < 250 nM

Compound: CCOc1cc(N2CCC(N3CCN(S(C)(=O)=O)CC3)CC2)ccc1Nc1nccc(-c2c(-c3ccc(OC)c(C(=O)Nc4c(F)cccc4F)c3)nc3ccccn23)n1 [Example 223, N-(2,6-difluorophenyl)-5-(3-{2-[(2-(ethyloxy)-4-{4-[4-(methylsulfonyl)-1-piperazinyl]-1-piperidinyl}phenyl)amino]-4-pyrimidinyl}imidazo[1,2-a]pyridin-2-yl)-2-(methyloxy)benzamide]
- IC50 [1]: < 250 nM
- IC50 [2]: < 100 nM
- IC50 [3]: < 100 nM
- IC50 [4]: < 250 nM

Compound: CCOc1cc(N2CCC(N3CCN(S(C)(=O)=O)CC3)CC2)ccc1Nc1nccc(-c2c(-c3cccc(C(=O)Nc4c(F)cccc4F)c3)nc3ccccn23)n1 [Example 224, N-(2,6-difluorophenyl)-3-(3-{2-[(2-(ethyloxy)-4-{4-[4-(methylsulfonyl)-1-piperazinyl]-1-piperidinyl}phenyl)amino]-4-pyrimidinyl}imidazo[1,2-a]pyridin-2-yl)benzamide]
- IC50 [1]: < 250 nM
- IC50 [2]: < 100 nM
- IC50 [3]: < 100 nM
- IC50 [4]: 250 to 1000 nM

Compound: COc1cc(N2CCN(S(C)(=O)=O)CC2)c(C)cc1Nc1nccc(-c2c(-c3cccc(C(=O)Nc4c(F)cccc4F)c3)nc3ccccn23)n1 [Example 226, N-(2,6-difluorophenyl)-3-{3-[2-({5-methyl-2-(methyloxy)-4-[4-(methylsulfonyl)-1-piperazinyl]phenyl}amino)-4-pyrimidinyl]imidazo[1,2-a]pyridin-2-yl}benzamide]
- IC50 [1]: < 250 nM
- IC50 [2]: < 100 nM
- IC50 [3]: < 100 nM
- IC50 [4]: < 250 nM

Compound: COc1cc(N2CCC(N3CCN(S(C)(=O)=O)CC3)CC2)ccc1Nc1nccc(-c2c(-c3ccc(OC(C)C)c(C(=O)Nc4c(F)cccc4F)c3)nc3ccccn23)n1 [Example 227, N-(2,6-difluorophenyl)-2-[(1-methylethyl)oxy]-5-(3-{2-[(2-(methyloxy)-4-{4-[4-(methylsulfonyl)-1-piperazinyl]-1-piperidinyl}phenyl)amino]-4-pyrimidinyl}imidazo[1,2-a]pyridin-2-yl)benzamide]
- IC50 [1]: < 250 nM
- IC50 [2]: < 100 nM
- IC50 [3]: < 100 nM
- IC50 [4]: < 250 nM

Compound: CCOc1ccc(-c2nc3ccccn3c2-c2ccnc(Nc3ccc(N4CCC(N5CCN(S(C)(=O)=O)CC5)CC4)cc3OC)n2)cc1C(=O)Nc1c(F)cccc1F [Example 228, N-(2,6-difluorophenyl)-2-(ethyloxy)-5-(3-{2-[(2-(methyloxy)-4-{4-[4-(methylsulfonyl)-1-piperazinyl]-1-piperidinyl}phenyl)amino]-4-pyrimidinyl}imidazo[1,2-a]pyridin-2-yl)benzamide]
- IC50 [1]: < 250 nM
- IC50 [2]: < 100 nM
- IC50 [3]: < 100 nM
- IC50 [4]: < 250 nM

Compound: CCOc1ccc(-c2nc3ccccn3c2-c2ccnc(Nc3cc(C)c(N4CCC(CCS(C)(=O)=O)CC4)cc3OC)n2)cc1C(=O)Nc1c(F)cccc1F [Example 229, N-(2,6-difluorophenyl)-2-(ethyloxy)-5-(3-{2-[(5-methyl-2-(methyloxy)-4-{4-[2-(methylsulfonyl)ethyl]-1-piperidinyl}phenyl)amino]-4-pyrimidinyl}imidazo[1,2-a]pyridin-2-yl)benzamide]
- IC50 [1]: < 250 nM
- IC50 [2]: < 100 nM
- IC50 [3]: < 100 nM
- IC50 [4]: < 250 nM

Compound: COc1cc(N2CCC(CCS(C)(=O)=O)CC2)c(C)cc1Nc1nccc(-c2c(-c3ccc(OC)c(C(=O)Nc4c(F)cccc4F)c3)nc3ccccn23)n1 [Example 230, N-(2,6-difluorophenyl)-5-(3-{2-[(5-methyl-2-(methyloxy)-4-{4-[2-(methylsulfonyl)ethyl]-1-piperidinyl}phenyl)amino]-4-pyrimidinyl}imidazo[1,2-a]pyridin-2-yl)-2-(methyloxy)benzamide]
- IC50 [1]: < 250 nM
- IC50 [2]: < 100 nM
- IC50 [3]: < 100 nM
- IC50 [4]: < 250 nM

Compound: CCOc1ccc(-c2nc3ccccn3c2-c2ccnc(Nc3ccc(N4CCN(S(C)(=O)=O)CC4)cc3OC)n2)cc1C(=O)Nc1c(F)cccc1F [Example 232, N-(2,6-difluorophenyl)-2-(ethyloxy)-5-{3-[2-({2-(methyloxy)-4-[4-(methylsulfonyl)-1-piperazinyl]phenyl]amino)-4-pyrimidinyl]imidazo[1,2-a]pyridin-2-yl}benzamide]
- IC50 [1]: < 250 nM
- IC50 [2]: < 100 nM
- IC50 [3]: < 100 nM
- IC50 [4]: < 250 nM

Compound: COc1cc(N2CCN(S(C)(=O)=O)CC2)ccc1Nc1nccc(-c2c(-c3ccc(OC)c(C(=O)Nc4c(F)cccc4F)c3)nc3ccccn23)n1 [Example 233, N-(2,6-difluorophenyl)-2-(methyloxy)-5-{3-[2-({2-(methyloxy)-4-[4-(methylsulfonyl)-1-piperazinyl]phenyl}amino)-4-pyrimidinyl]imidazo[1,2-a]pyridin-2-yl}benzamide]
- IC50 [1]: < 250 nM
- IC50 [2]: < 100 nM
- IC50 [3]: < 100 nM
- IC50 [4]: 250 to 1000 nM

Compound: COc1cc(N2CCN(S(C)(=O)=O)CC2)ccc1Nc1nccc(-c2c(-c3cccc(C(=O)Nc4c(F)cccc4F)c3)nc3ccccn23)n1 [Example 234, N-(2,6-difluorophenyl)-3-{3-[2-({2-(methyloxy)-4-[4-(methylsulfonyl)-1-piperazinyl]phenyl}amino)-4-pyrimidinyl}imidazo[1,2-a]pyridin-2-yl]benzamide]
- IC50 [1]: < 250 nM
- IC50 [2]: < 100 nM
- IC50 [3]: < 100 nM
- IC50 [4]: 250 to 1000 nM

Compound: CCOc1ccc(-c2nc3ccccn3c2-c2ccnc(Nc3cc(CC)c(N4CCN(CCS(C)(=O)=O)CC4)cc3OC)n2)cc1C(=O)Nc1c(F)cccc1F [Example 235, N-(2,6-difluorophenyl)-5-(3-{2-[(5-ethyl-2-(methyloxy)-4-{4-[2-(methylsulfonyl)ethyl]-1-piperazinyl}phenyl)amino]-4-pyrimidinyl}imidazo[1,2-a]pyridin-2-yl)-2-(ethyloxy)benzamide]
- IC50 [1]: < 250 nM
- IC50 [2]: < 100 nM
- IC50 [3]: < 100 nM
- IC50 [4]: < 250 nM

Compound: COc1cc(N2CCC(N3CCN(S(C)(=O)=O)CC3)CC2)c(C)cc1Nc1nccc(-c2c(-c3ccc(OC)c(C(=O)Nc4c(F)cccc4F)c3)nc3ccccn23)n1 [Example 236, N-(2,6-difluorophenyl)-5-(3-{2-[(5-methyl-2-(methyloxy)-4-{4-[4-(methylsulfonyl)-1-piperazinyl]-1-piperidinyl}phenyl)amino]-4-pyrimidinyl}imidazo[1,2-a]pyridin-2-yl)-2-(methyloxy)benzamide]
- IC50 [1]: < 250 nM
- IC50 [2]: < 100 nM
- IC50 [3]: < 100 nM
- IC50 [4]: < 250 nM

Compound: CCOc1ccc(-c2nc3ccccn3c2-c2ccnc(Nc3ccc(N4CCN(CCOC)CC4)cc3OC)n2)cc1C(=O)Nc1c(F)cccc1F [Example 238, N-(2,6-difluorophenyl)-2-(ethyloxy)-5-(3-{2-[(2-(methyloxy)-4-{4-[2-(methyloxy)ethyl]-1-piperazinyl}phenyl)amino]-4-pyrimidinyl}imidazo[1,2-a]pyridin-2-yl)benzamide]
- IC50 [1]: < 250 nM
- IC50 [2]: < 100 nM
- IC50 [3]: < 100 nM
- IC50 [4]: 250 to 1000 nM

Compound: COCCN1CCN(c2ccc(Nc3nccc(-c4c(-c5ccc(OC)c(C(=O)Nc6c(F)cccc6F)c5)nc5ccccn45)n3)c(OC)c2)CC1 [Example 239, N-(2,6-difluorophenyl)-2-(methyloxy)-5-(3-{2-[(2-(methyloxy)-4-{4-[2-(methyloxy)ethyl]-1-piperazinyl}phenyl)amino]-4-pyrimidinyl}imidazo[1,2-a]pyridin-2-yl)benzamide]
- IC50 [1]: < 250 nM
- IC50 [2]: < 100 nM
- IC50 [3]: < 100 nM
- IC50 [4]: 250 to 1000 nM

Compound: COCCN1CCN(c2ccc(Nc3nccc(-c4c(-c5cccc(C(=O)Nc6c(F)cccc6F)c5)nc5ccccn45)n3)c(OC)c2)CC1 [Example 240, N-(2,6-difluorophenyl)-3-(3-{2-[(2-(methyloxy)-4-{4-[2-(methyloxy)ethyl]-1-piperazinyl}phenyl)amino]-4-pyrimidinyl}imidazo[1,2-a]pyridin-2-yl)benzamide]
- IC50 [1]: 250 to 1000 nM
- IC50 [2]: < 100 nM
- IC50 [3]: < 100 nM
- IC50 [4]: 250 to 1000 nM

Compound: CCOc1ccc(-c2nc3ccccn3c2-c2ccnc(Nc3cc(C)c(N4CCN(CCOC)CC4)cc3OC)n2)cc1C(=O)Nc1c(F)cccc1F [Example 241, N-(2,6-difluorophenyl)-2-(ethyloxy)-5-(3-{2-[(5-methyl-2-(methyloxy)-4-{4-[2-(methyloxy)ethyl]-1-piperazinyl}phenyl)amino]-4-pyrimidinyl}imidazo[1,2-a]pyridin-2-yl)benzamide]
- IC50 [1]: < 250 nM
- IC50 [2]: < 100 nM
- IC50 [3]: < 100 nM
- IC50 [4]: 250 to 1000 nM

Compound: COCCN1CCN(c2cc(OC)c(Nc3nccc(-c4c(-c5ccc(OC)c(C(=O)Nc6c(F)cccc6F)c5)nc5ccccn45)n3)cc2C)CC1 [Example 242, N-(2,6-difluorophenyl)-5-(3-{2-[(5-methyl-2-(methyloxy)-4-{4-[2-(methyloxy)ethyl]-1-piperazinyl}phenyl)amino]-4-pyrimidinyl}imidazo[1,2-a]pyridin-2-yl)-2-(methyloxy)benzamide]
- IC50 [1]: < 250 nM
- IC50 [2]: < 100 nM
- IC50 [3]: < 100 nM
- IC50 [4]: 250 to 1000 nM
